Test results reported in paper PMC7007424 (Neurotherapeutics, 2019).
Entries after “also recorded” stand apart in the source; their conditions may differ. Where two headings read alike, the source gives them in different places. Marks after values point to notes of the source that are not given here.

Legend:
[1] = metabolic stability on human liver microsomes (HLMs); type: in vitro ADME; conditions: 120 min incubation with HLMs
CB1 (h) = target: T1, CB1 (h) (Homo sapiens, UniProt P21554); assay: CB1 functional assay (agonist and antagonist effect); type: cell-based; conditions: human recombinant (CHO cells), read-out: % inhibition of control agonist/antagonist response (antagonist effect)
T1 construct: Cerep Laboratories (contract testing)
T1 sequence (P21554 whole entry): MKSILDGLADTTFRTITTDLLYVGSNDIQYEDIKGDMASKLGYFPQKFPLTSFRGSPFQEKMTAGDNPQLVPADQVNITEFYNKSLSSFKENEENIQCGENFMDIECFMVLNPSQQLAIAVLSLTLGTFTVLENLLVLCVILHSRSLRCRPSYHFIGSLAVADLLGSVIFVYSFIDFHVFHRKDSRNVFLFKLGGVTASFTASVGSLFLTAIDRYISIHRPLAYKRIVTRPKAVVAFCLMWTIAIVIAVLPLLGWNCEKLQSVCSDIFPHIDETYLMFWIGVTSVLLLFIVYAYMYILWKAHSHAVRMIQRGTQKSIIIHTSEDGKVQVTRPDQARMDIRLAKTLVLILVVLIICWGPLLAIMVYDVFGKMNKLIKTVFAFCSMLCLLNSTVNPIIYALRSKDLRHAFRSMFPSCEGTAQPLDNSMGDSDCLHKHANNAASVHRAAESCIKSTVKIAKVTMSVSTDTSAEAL

TRPV1 (VR1) (h) = target: T2, TRPV1 (VR1) (h) (Homo sapiens, UniProt Q8NER1); assay: TRPV1 functional assay (antagonist effect); type: cell-based; conditions: human recombinant (CHO cells), read-out: % inhibition of control agonist/antagonist response (antagonist effect)
T2 construct: Cerep Laboratories (contract testing)
T2 sequence (Q8NER1 whole entry): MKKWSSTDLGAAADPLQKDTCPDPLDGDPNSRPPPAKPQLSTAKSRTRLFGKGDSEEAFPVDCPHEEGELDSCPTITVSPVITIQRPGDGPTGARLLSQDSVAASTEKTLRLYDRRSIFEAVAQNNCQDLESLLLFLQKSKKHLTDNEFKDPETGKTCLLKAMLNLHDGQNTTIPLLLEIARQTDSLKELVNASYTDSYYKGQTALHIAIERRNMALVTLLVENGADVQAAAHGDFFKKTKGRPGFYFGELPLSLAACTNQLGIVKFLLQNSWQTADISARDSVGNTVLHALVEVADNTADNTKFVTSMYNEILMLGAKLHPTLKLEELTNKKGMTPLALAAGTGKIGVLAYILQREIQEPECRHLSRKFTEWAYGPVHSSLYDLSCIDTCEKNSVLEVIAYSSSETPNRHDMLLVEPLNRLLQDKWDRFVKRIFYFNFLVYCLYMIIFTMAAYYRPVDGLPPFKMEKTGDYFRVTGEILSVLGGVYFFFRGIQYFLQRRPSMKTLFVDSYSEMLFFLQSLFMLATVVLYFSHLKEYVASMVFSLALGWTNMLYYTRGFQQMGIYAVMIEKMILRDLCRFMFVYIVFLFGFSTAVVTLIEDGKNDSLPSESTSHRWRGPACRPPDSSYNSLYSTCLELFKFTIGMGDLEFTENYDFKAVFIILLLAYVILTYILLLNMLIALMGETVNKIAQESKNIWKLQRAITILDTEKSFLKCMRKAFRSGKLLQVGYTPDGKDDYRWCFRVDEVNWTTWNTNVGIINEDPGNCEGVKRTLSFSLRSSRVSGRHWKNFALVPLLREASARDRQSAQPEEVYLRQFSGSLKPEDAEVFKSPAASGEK

[2] = tested on: L-type Ca^2+ (diltiazem site, antagonist radioligand); assay: L-type Ca2+ channel (diltiazem site) binding; conditions: 100 μM; rat cerebral cortex
[3] = tested on: GABA transporter (antagonist radioligand); assay: GABA transporter binding; conditions: 100 μM; rat cerebral cortex
hERG potassium channel = hERG potassium channel (Homo sapiens, UniProt Q12809); assay: in vitro
Sequence of hERG potassium channel (Q12809 whole entry): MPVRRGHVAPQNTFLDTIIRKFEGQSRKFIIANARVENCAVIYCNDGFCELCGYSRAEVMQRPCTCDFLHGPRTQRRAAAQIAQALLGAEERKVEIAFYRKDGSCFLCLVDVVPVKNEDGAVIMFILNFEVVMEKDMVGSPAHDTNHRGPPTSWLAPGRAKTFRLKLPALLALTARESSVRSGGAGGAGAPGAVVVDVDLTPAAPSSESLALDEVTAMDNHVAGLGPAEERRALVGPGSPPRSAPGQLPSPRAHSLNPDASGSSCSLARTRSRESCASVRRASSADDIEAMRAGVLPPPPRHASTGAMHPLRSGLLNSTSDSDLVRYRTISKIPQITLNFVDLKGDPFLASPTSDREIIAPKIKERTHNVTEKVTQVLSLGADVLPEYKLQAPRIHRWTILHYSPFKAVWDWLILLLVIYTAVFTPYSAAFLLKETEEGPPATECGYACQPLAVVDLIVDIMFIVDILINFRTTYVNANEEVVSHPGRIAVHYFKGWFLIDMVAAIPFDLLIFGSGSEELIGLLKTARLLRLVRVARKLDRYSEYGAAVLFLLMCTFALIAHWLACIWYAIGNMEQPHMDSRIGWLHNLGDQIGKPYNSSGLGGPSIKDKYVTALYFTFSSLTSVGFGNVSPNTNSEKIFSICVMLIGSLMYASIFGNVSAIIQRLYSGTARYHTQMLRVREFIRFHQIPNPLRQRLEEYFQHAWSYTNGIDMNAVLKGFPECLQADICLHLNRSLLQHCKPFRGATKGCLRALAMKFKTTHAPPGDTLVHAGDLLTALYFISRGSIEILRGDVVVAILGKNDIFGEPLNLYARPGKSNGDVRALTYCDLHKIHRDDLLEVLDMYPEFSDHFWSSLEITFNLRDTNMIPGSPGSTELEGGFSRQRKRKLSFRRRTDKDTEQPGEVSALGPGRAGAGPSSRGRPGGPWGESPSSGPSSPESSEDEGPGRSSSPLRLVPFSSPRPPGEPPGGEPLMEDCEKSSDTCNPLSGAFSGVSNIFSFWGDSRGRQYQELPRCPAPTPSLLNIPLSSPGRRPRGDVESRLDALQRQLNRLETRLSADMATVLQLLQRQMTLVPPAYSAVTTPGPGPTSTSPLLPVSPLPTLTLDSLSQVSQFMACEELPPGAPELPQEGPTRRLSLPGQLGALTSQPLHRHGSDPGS

[4] = tested on: fast voltage-gated sodium channels; assay: patch clamp of sodium currents in prefrontal cortex pyramidal neurons; type: cell-based, rats; conditions: 100 μM, holding potential − 65 mV, n = 6, p > 0.05
[5] = tested on: NMDA (antagonist radioligand); set-up: method as in Rapacz et al. [12]; conditions: rat cerebral cortex, ref Rapacz et al. [12], cited from earlier work
mice [6] = assay: chimney test; type: in vivo; conditions: i.p. 30 min before, AS-1 81.12 mg/kg, VPA […], combination AS-1 27.6 + VPA 59.9 mg/kg
Description: [31]’s chimney test. The pretreatment time for AS-1 and VPA in the chimney test was identical to that of the PTZ test. This experimental procedure has been described in detail in our earlier studies.

CYP2C9 = CYP2C9 (Homo sapiens, UniProt P11712); conditions: 10 μM
Sequence of CYP2C9 (P11712 whole entry): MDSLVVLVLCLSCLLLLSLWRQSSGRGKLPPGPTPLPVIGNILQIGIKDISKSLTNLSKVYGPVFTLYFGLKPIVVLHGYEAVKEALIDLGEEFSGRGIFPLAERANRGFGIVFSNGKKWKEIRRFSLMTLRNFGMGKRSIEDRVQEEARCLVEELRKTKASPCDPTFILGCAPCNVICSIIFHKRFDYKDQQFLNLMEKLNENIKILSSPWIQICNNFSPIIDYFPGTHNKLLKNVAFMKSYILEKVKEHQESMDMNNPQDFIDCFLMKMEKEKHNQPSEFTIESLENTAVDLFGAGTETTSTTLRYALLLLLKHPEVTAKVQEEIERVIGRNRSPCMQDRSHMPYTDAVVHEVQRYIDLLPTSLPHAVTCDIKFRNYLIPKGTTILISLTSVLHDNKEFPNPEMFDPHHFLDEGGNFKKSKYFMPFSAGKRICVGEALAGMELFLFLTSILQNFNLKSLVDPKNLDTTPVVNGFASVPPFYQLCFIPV

Na^+ channel (site 2) = tested on: Na^+ channel (site 2); set-up: method as in Rapacz et al. [12]; conditions: rat cerebral cortex, ref Rapacz et al. [12], cited from earlier work
mice [7] = assay: passive avoidance task; type: in vivo; conditions: i.p. 30 min before, AS-1 81.12 mg/kg, VPA […], combination AS-1 27.6 + VPA 59.9 mg/kg
hepatoma HepG2 cells [8] = assay: hepatotoxicity, HepG2 cell viability; type: cell-based
[9] = parallel artificial membrane permeability assay (PAMPA); type: in vitro ADME; conditions: ± SD, read-out: Pe, permeability coefficient
mice [10] = assay: grip strength test; type: in vivo; conditions: i.p. 30 min before, AS-1 81.12 mg/kg, VPA […], combination AS-1 27.6 + VPA 59.9 mg/kg
Description: The time before the commencement of the grip strength test (after drug administration) was identical to that of the PTZ test. This experimental procedure has been described in detail in our earlier studies.

[11] = tested on: PTZ-induced kindling in mice; assay: PTZ-induced kindling; type: in vivo; conditions: 33 daily i.p. injections; AS-1 15, 30 and 60 mg/kg, VPA 150 mg/kg; PTZ 40 mg/kg i.p. every 48 h, 17 injections; vs PTZ-kindled control
Description: All suspensions and solutions were prepared freshly and administered in a constant volume of 0.1 ml per 10 g of body weight. In all experiments, AS-1 and VPA were injected i.p. Control animals received vehicles only. […] After each PTZ injection, mice were placed separately into transparent cages for 30 min for behavioral observation to assign an appropriate seizure score. […] After each PTZ injection, the mean seizure severity score for each experimental group was calculated. Non-kindled (control) mice were treated as kindled animals, except that they were injected with normal saline instead of PTZ. Experimental grouping for PTZ kindling was as follows: […]

naïve mice = assay: i.v. PTZ seizure threshold test in naïve mice; type: in vivo; conditions: acute
Description: All suspensions and solutions were prepared freshly and administered in a constant volume of 0.1 ml per 10 g of body weight. […] The timed i.v. PTZ test was used to evaluate the changes in seizure threshold in both naïve and kindled mice. The experimental procedure has been described in detail in our earlier studies.

hepatoma HepG2 cells [12] = conditions: 24 h incubation, only at the highest used dose of 100 μM; ref [12]; cited from earlier work
CYP2D6 = CYP2D6 (Homo sapiens, UniProt P10635)
Sequence of CYP2D6 (P10635 whole entry): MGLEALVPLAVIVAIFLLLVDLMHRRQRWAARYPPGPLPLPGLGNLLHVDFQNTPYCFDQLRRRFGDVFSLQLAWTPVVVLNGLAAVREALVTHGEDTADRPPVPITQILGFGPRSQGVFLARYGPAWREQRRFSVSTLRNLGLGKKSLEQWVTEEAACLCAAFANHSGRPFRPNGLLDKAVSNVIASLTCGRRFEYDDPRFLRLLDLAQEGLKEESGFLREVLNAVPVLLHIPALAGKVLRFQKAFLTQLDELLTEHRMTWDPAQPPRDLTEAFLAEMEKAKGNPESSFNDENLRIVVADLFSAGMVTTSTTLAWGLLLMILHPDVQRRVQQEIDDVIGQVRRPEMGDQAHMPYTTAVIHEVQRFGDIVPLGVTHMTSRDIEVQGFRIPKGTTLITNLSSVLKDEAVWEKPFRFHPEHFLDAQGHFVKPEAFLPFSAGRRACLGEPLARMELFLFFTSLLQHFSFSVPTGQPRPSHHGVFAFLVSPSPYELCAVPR

[13] = tested on: PTZ-induced clonic seizures in mice; assay: s.c. PTZ-induced clonic seizure test, with isobolographic analysis; type: in vivo
Description: Following PTZ administration, mice were placed separately in transparent Plexiglas cages (25 cm × 15 cm × 10 cm) and observed for 30 min for the occurrence of clonic seizures. Clonic seizure activity was defined as the clonus of the whole body lasting for over 3 s, with an accompanying loss of righting reflex.
To determine the ED50 mix value, both drugs in the mixture (at proportionally raised doses) were administered to the mice and a dose–response relationship for the mixture was denoted using Litchfield and Wilcoxon [25]’s log-probit method. • Statistical comparison of the experimentally derived ED50 mix values with their corresponding theoretically additive ED50 add values was undertaken using the unpaired Student’s t test, according to Tallarida [30]. • Graphical illustration of the examined interactions as isobolograms (i.e., simple forms of interaction visualizations).

CYP3A4 = CYP3A4 (Homo sapiens, UniProt P08684)
Sequence of CYP3A4 (P08684 whole entry): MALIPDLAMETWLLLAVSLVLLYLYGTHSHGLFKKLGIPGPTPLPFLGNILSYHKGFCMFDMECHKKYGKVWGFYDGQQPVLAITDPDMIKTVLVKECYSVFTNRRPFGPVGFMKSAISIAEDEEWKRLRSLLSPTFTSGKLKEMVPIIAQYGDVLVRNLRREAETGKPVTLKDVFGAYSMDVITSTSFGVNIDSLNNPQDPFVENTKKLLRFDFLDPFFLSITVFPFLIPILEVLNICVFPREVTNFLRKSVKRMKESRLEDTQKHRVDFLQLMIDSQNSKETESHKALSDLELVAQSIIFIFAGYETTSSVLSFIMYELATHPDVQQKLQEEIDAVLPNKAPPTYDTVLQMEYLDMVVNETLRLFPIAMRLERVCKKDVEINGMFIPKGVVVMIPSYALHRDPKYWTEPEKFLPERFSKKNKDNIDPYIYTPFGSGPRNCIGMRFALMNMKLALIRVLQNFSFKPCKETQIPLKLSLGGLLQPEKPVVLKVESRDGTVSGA

[14] = tested on: N-type Ca^2+ (antagonist radioligand); set-up: method as in Rapacz et al. [12]; conditions: 100 μM; rat cerebral cortex; ref Rapacz et al. [12]; cited from earlier work
[15] = tested on: L-type Ca^2+ (verapamil site, antagonist radioligand); set-up: method as in Rapacz et al. [12]; conditions: rat cerebral cortex, ref Rapacz et al. [12], cited from earlier work
zebrafish larvae = assay: EEG discharge assessment in zebrafish larvae exposed to PTZ; conditions: 5 mM, 20 h incubation, then 20 mM PTZ for 5 min; vs vehicle-incubated control
kindled mice = assay: i.v. PTZ seizure threshold test in kindled mice; type: in vivo
PTZ-kindled mice [16] = assay: elevated plus maze test in PTZ-kindled mice; type: in vivo; conditions: repeated i.p. injection, AS-1 15–60 mg/kg, VPA 150 mg/kg
Description: (§1) Twenty-four hours after the last PTZ injection (on day 34), mice were subjected to the locomotor activity test, the elevated plus maze test, and the forced swim test. Forty-eight hours after the last PTZ injection (on day 35) the i.v. PTZ seizure threshold test was performed. The elevated plus maze test was used to assess the anxiety-like behavior in kindled animal, as described in detail in our previous study.

[17] = tested on: 6-Hz-induced seizures (44 mA); assay: 6-Hz (44 mA) seizure model; type: in vivo; conditions: Mus musculus, ip; mice, i.p., 30 min before the test; 95% confidence intervals in parentheses
PTZ-kindled mice [18] = assay: locomotor activity test in PTZ-kindled mice; type: in vivo; conditions: repeated i.p. injection, AS-1 15–60 mg/kg, VPA 150 mg/kg, day 34
Description: Twenty-four hours after the last PTZ injection (on day 34), mice were subjected to the locomotor activity test, the elevated plus maze test, and the forced swim test. Forty-eight hours after the last PTZ injection (on day 35) the i.v. PTZ seizure threshold test was performed. Spontaneous locomotor activity of mice was monitored using the […] system supported by SedaCom32 software (Panlab/Harvard Apparatus, Barcelona, Spain) according to the method described in detail elsewhere.

[19] = tested on: 6-Hz (32 mA) psychomotor seizures; conditions: mice, i.p., cited from earlier work; for ED50 (6 Hz, 32 mA): ref [10], [12]; for anticonvulsant activity in 6 Hz, 32 mA: known AED profile, Fig. 1
[20] = tested on: PTZ-induced clonic seizures in mice; conditions: i.p., cited from earlier work
PTZ-kindled mice [21] = tested on: PTZ-kindled mice; set-up: method as in PMID 30247871; conditions: former study, ref [13]; cited from earlier work
[22] = tested on: maximal electroshock (MES) seizure; conditions: mice, i.p.; known AED profile, Fig. 1; cited from earlier work
6-Hz seizures = tested on: 6-Hz seizures; set-up: method as in PMID 28449218; conditions: 6-Hz test; ref [17]; cited from earlier work
PTZ-kindled mice [23] = assay: forced swim test in PTZ-kindled mice; type: in vivo; conditions: repeated i.p. injection, AS-1 15–60 mg/kg, VPA 150 mg/kg, vs kindled control
Description: as §1, with “The forced swim” for “The elevated plus maze”, “the depressive-like” for “the anxiety-like”, “kindled animals. The procedure was performed” for “kindled animal,”, “detail elsewhere.” for “detail in our previous study.”

[24] = 15 mg/kg i.p., 30 min before the test
[25] = 30 mg/kg and 60 mg/kg i.p. (p < 0.01 and p < 0.001)
[26] = repeated i.p. pretreatment 15–60 mg/kg

Structure (SMILES): CC(C(=O)NCc1ccccc1)N1C(=O)CCC1=O (stereo not drawn) [AS-1, N-benzyl-2-(2,5-dioxopyrrolidin-1-yl)propanamide]
- Phase I metabolism in human (metabolites by UPLC) [1]: no presence of metabolites; also recorded: No metabolites found
- inhibition at 100 µM (CB1 (h)): 5.6%
- inhibition at 100 µM (TRPV1 (VR1) (h)): 4.3%
- % inhibition of control-specific binding [2]: 10.2 (100) %
- % inhibition of control-specific binding [3]: 2.4 (100) %
- inhibition at 100 µM (hERG potassium channel): 0.8%
- maximal amplitude of sodium currents normalized to control (1.0 in control) [4]: 0.93 ± 0.06
- % inhibition of control-specific binding ([5]; 100 μM): 15.0%
- % inhibition of control-specific binding ([5]; 200 μM): 35.0%
- Motor coordination, percentage of animals showing motor coordination impairment (mice [6]): 0%
- CYP2C9 activity (CYP2C9): 67.0 ± 3.6^a Percentage of control
- % inhibition of control-specific binding (Na^+ channel (site 2); 100 μM): 15.9%
- % inhibition of control-specific binding (Na^+ channel (site 2); 500 μM): 56.0%
- Retention time, median (25th; 75th percentiles) (mice [7]): 180 (146; 180) s
- HepG2 viability (hepatoma HepG2 cells [8]; 100 μM, 72 h incubation, ± SD): 82.3 ± 6.5^a Percentage of control
- effect on HepG2 cells' viability (hepatoma HepG2 cells [8]; only at the highest concentration used of 100 μM, 72 h, p < 0.05): slight but statistically significant effect
- Papp [9]: 9.8 ± 2 ×10⁻⁶ cm/s
- Muscular strength, mean grip strength ± SEM (mice [10]): 99.9 ± 2.2 g
- effect on kindling development (mean seizure severity score) [11]: significantly suppressed kindling development
- effect on threshold for generalized clonus (naïve mice; [24]): did not affect significantly
- effect on threshold for the first myoclonic twitch (naïve mice; [24]): did not affect significantly
- effect on threshold for generalized clonic seizure (naïve mice; [25]): raised the thresholds
- effect on threshold for the first myoclonic twitch (naïve mice; [25]): raised the thresholds
- effect on susceptibility to PTZ-induced forelimb extension (forelimb tonus threshold) (naïve mice; 15–60 mg/kg i.p.): did not affect
- effect on HepG2 cells (hepatoma HepG2 cells [12]): weak, statistically significant toxic effect
- effect on CYP2D6 activity (CYP2D6): No significant effect
- CYP2D6 activity (CYP2D6; human, 10 μM): 104.4 ± 0.5^a Percentage of control
- ED50 ([13]; Mus musculus, drug alone i.p. 30 min before s.c. PTZ 100 mg/kg, ± SEM, read-out: ED50 against PTZ-induced clonic seizures): 81.1 ± 10.4 mg/kg
- effect on CYP3A4 activity (CYP3A4): No significant effect
- % inhibition of control-specific binding [14]: 0.2 (100) %
- % inhibition of control-specific binding ([15]; 100 μM): 15.0%
- % inhibition of control-specific binding ([15]; 500 μM): 45.0%
- effect on number of epileptiform discharges during 20 min (zebrafish larvae): significantly reduced
- effect on seizure threshold for the first myoclonic twitch (kindled mice; repeated i.p. injection of 60 mg/kg, 48 h after last PTZ, vs non-kindled control): significantly increased the seizure threshold
- effect on threshold for forelimb tonus (kindled mice; [26]): No changes
- effect on threshold for generalized clonus (kindled mice; [26]): No changes
- effect on percentage of open arm entries and percentage of time spent in open arms (PTZ-kindled mice [16]): did not produce any significant changes
- ED50 [17]: 75.4 mg/kg
- effect on spontaneous locomotor activity (PTZ-kindled mice [18]): did not affect locomotor activity
- ED50 (6 Hz, 32 mA) [19]: 24.66 mg/kg

Structure (SMILES): N#CC(C#N)=NNc1cccc(Cl)c1 [CCCP, carbonyl cyanide 3-chlorophenylhydrazone, reference compound]
- HepG2 cells' viability (hepatoma HepG2 cells [8]; 10 μM): ~ 40 % of control

Structure (SMILES): COc1cccc2c1C(=O)c1c(O)c3c(c(O)c1C2=O)C[C@@](O)(C(=O)CO)C[C@@H]3O[C@H]1C[C@H](N)[C@H](O)[C@H](C)O1 [DX, doxorubicin, reference compound]
- HepG2 cells' viability (hepatoma HepG2 cells [8]; 1 μM): ~ 40 % of control

Structure (SMILES): CCC1(C)CC(=O)NC1=O (stereo not drawn) [ETX, ethosuximide]
- anticonvulsant activity in scPTZ ([20]; known AED profile, Fig. 1): active

Structure (SMILES): CC(C(=O)N1CCN(c2cccc(C(F)(F)F)c2)CC1)N1C(=O)CCC1=O (stereo not drawn) [KA-11, 1-(1-oxo-1-(4-(3-(trifluoromethyl)phenyl)piperazin-1-yl)propan-2-yl)pyrrolidine-2,5-dione]
- effect on depressive-like behavior caused by PTZ-induced kindling (PTZ-kindled mice [21]): prevented the depressive-like behavior

Structure (SMILES): COC[C@@H](NC(C)=O)C(=O)NCc1ccccc1 [LCS, lacosamide, reference compound]
- anticonvulsant activity in MES [22]: active
- anticonvulsant activity in 6 Hz, 32 mA [19]: active

Structure (SMILES): CC[C@@H](C(N)=O)N1CCCC1=O [LEV, levetiracetam]
- ED50 at 44 mA versus ED50 at 32 mA stimulus intensity (6-Hz seizures): at least 50 times
- anticonvulsant activity in 6 Hz, 32 mA [19]: active

Structure (SMILES): CCCC(CCC)C(=O)O [VPA, valproic acid, reference compound]
- ED50 (s.c. PTZ) ([20]; earlier study, ref [10], [12]): 239.45 mg/kg
- Motor coordination, percentage of animals showing motor coordination impairment (mice [6]): 12.5%
- Retention time, median (25th; 75th percentiles) (mice [7]): 180 (180; 180) s
- Muscular strength, mean grip strength ± SEM (mice [10]): 104.7 ± 2.8 g
- effect on kindling development (mean seizure severity score) [11]: suppressed kindling progression
- effect on total immobility duration (PTZ-kindled mice [23]): significantly decreased the immobility time
- protection against PTZ-induced clonic seizures ([13]; 125 mg/kg i.p.): 12.5%
- protection against PTZ-induced clonic seizures ([13]; 150 mg/kg i.p.): 37.5%
- protection against PTZ-induced clonic seizures ([13]; 200 mg/kg i.p.): 62.5%
- effect on percentage of open arm entries and percentage of time spent in open arms (PTZ-kindled mice [16]): did not produce any significant changes
- effect on spontaneous locomotor activity (PTZ-kindled mice [18]): did not affect locomotor activity
- ED50 (6 Hz, 32 mA) [19]: 130.65 mg/kg
